Numbered stars: 1 amine (or outer) side, 2 acyl side, 3 side chain; on linkers, the order of the positions; unused ones are H or OH. Bridge positions count the residues as written; N and C are the ends. Square brackets hold non-standard residues; d marks the D form. Peptide text beside a SMILES is read from it. * marks the point of attachment. C20 diacid = O=C(O)CCCCCCCCCCCCCCCCCCC(=O)*; γGlu = O=C(O)[C@H](CCC(=O)[*:2])N[*:1]; NMeI = CC[C@H](C)[C@H](NC)C(=O)O; Sar = CNCC(=O)O
Assay: Solubility assessment (turbidity absorbance at 325 nm)
Format: physicochemical
Conditions: stock 2 mg/ml diluted 1:1, ambient temperature (typically 25°C), n=1; for Solubility, Acetate buffer pH 4: 100 mM acetate buffer pH 4.0; for Solubility, Acetate buffer pH 5: 100 mM acetate buffer pH 5.0; for Solubility, Histidine buffer pH 6: 100 mM histidine buffer pH 6.0; for Solubility, Histidine buffer pH 7: 100 mM histidine buffer pH 7.0; for Solubility, Phosphate buffer pH 6: 100 mM phosphate buffer pH 6.0; for Solubility, Phosphate buffer pH 7: 100 mM phosphate buffer pH 7.0; for Solubility, Phosphate buffer pH 7.5: 100 mM phosphate buffer pH7.5
Protocol: A stock solution of the test peptide (2 mg/ml; determined from the weighed amount of peptide) in demineralized water adjusted to pH 2.5 with HCI was prepared, and aliquots were diluted 1:1 in 100 mM acetate buffer (pH 4.0 and pH 5.0), 100 mM histidine buffer (pH 6.0 and pH 7.0) and 100 mM phosphate buffer (pH 6.0, pH 7.0 and pH7.5), respectively, and loaded in a standard flat-bottom, non-sterile 96-well UV Microplate. The absorbance of samples (single samples, n=1) at 280 and 325 nm was measured in an absorbance-based plate reader, which was preheated to ambient temperature (typically 25°C). The turbidity absorbance criterion for a peptide solubility of ≥ 1 mg/ml was an absorbance at 325 nm of ≤ 0.02 absorbance units (which is 5 to 6 times the standard deviation of 8 buffer samples in a plate). Solubility data for peptides of the invention, pramlintide, and for a comparison pramlintide derivative denoted NN96 (see Example 5 below for details) are shown in Table 1, below. Table 1. Solubility data for compounds of the invention.

CC[C@H](C)[C@@H](C(=O)N[C@@H](CC(C)C)C(=O)N[C@@H](CO)C(=O)N[C@@H](CO)C(=O)N[C@H](C(=O)N[C@@H](CC(N)=O)C(=O)N[C@H](C(=O)NCC(=O)N[C@@H](CO)C(=O)N[C@@H](CC(N)=O)C(=O)N[C@H](C(=O)N1CCC[C@H]1C(N)=O)[C@@H](C)O)C(C)C)[C@@H](C)O)N(C)C(=O)[C@H](C)NC(=O)CN(C)C(=O)[C@H](Cc1ccccc1)NC(=O)[C@H](CC(N)=O)NC(=O)[C@H](CC(N)=O)NC(=O)[C@H](CO)NC(=O)[C@H](CO)NC(=O)[C@H](Cc1c[nH]cn1)NC(=O)[C@H](Cc1c[nH]cn1)NC(=O)[C@@H](CC(C)C)NC(=O)[C@H](Cc1ccccc1)NC(=O)[C@H](CCC(=O)O)NC(=O)[C@H](C)NC(=O)[C@H](CC(C)C)NC(=O)[C@H](CCCNC(=N)N)NC(=O)[C@H](CCC(N)=O)NC(=O)[C@@H](NC(=O)[C@H](C)NC(=O)[C@@H]1CSSC[C@H](NC(=O)[C@H](CCCNC(=N)N)NC(=O)CC[C@H](NC(=O)CCCCCCCCCCCCCCCCCCC(=O)O)C(=O)O)C(=O)N[C@@H](CC(N)=O)C(=O)N[C@@H]([C@@H](C)O)C(=O)N[C@@H](C)C(=O)N[C@@H]([C@@H](C)O)C(=O)N1)[C@@H](C)O [Compound 10, [19CD]-isoGlu-RC()NTATC()ATQRLAEF-DLeu-HHSSNNF-Gly(Me)-A-Ile(Me)-LSSTNVGSNTP-NH2] ({C20 diacid-γGlu}-RCNTATCATQRLAEF[dL]HHSSNNF[Sar]A[NMeI]LSSTNVGSNTP-NH2; disulfide 2-7)
SS (SS indicates solubility ≥ 1mg/ml): Solubility, Acetate buffer pH 4 | Solubility, Acetate buffer pH 5 | Solubility, Histidine buffer pH 6 | Solubility, Histidine buffer pH 7 | Solubility, Phosphate buffer pH 6 | Solubility, Phosphate buffer pH 7 | Solubility, Phosphate buffer pH 7.5

CC[C@H](C)[C@@H](C(=O)N[C@@H](CC(C)C)C(=O)N[C@@H](CO)C(=O)N[C@@H](CO)C(=O)N[C@H](C(=O)N[C@@H](CC(N)=O)C(=O)N[C@H](C(=O)NCC(=O)N[C@@H](CO)C(=O)N[C@@H](CC(N)=O)C(=O)N[C@H](C(=O)N1CCC[C@H]1C(N)=O)[C@@H](C)O)C(C)C)[C@@H](C)O)N(C)C(=O)[C@H](C)NC(=O)CN(C)C(=O)[C@H](Cc1ccccc1)NC(=O)[C@H](CC(N)=O)NC(=O)[C@@H](CC(N)=O)NC(=O)[C@H](CO)NC(=O)[C@H](CO)NC(=O)[C@H](Cc1c[nH]cn1)NC(=O)[C@H](Cc1c[nH]cn1)NC(=O)[C@H](CC(C)C)NC(=O)[C@H](Cc1ccccc1)NC(=O)[C@H](CCC(=O)O)NC(=O)[C@H](C)NC(=O)[C@H](CC(C)C)NC(=O)[C@H](CCCNC(=N)N)NC(=O)[C@H](CCC(N)=O)NC(=O)[C@@H](NC(=O)[C@H](C)NC(=O)[C@@H]1CSSC[C@H](NC(=O)[C@H](CCCNC(=N)N)NC(=O)CC[C@H](NC(=O)CCCCCCCCCCCCCCCCCCC(=O)O)C(=O)O)C(=O)N[C@@H](CC(N)=O)C(=O)N[C@@H]([C@@H](C)O)C(=O)N[C@@H](C)C(=O)N[C@@H]([C@@H](C)O)C(=O)N1)[C@@H](C)O [Compound 32, [19CD]-isoGlu-RC()NTATC()ATQRLAEFLHHSS-DAsn-NF-Gly(Me)-A-Ile(Me)-LSSTNVGSNTP-NH2] ({C20 diacid-γGlu}-RCNTATCATQRLAEFLHHSS[dN]NF[Sar]A[NMeI]LSSTNVGSNTP-NH2; disulfide 2-7)
SS (SS indicates solubility ≥ 1mg/ml): Solubility, Acetate buffer pH 4 | Solubility, Acetate buffer pH 5 | Solubility, Histidine buffer pH 6 | Solubility, Histidine buffer pH 7 | Solubility, Phosphate buffer pH 6 | Solubility, Phosphate buffer pH 7 | Solubility, Phosphate buffer pH 7.5

CC[C@H](C)[C@@H](C(=O)N[C@@H](CC(C)C)C(=O)N[C@@H](CO)C(=O)N[C@@H](CO)C(=O)N[C@H](C(=O)N[C@@H](CC(N)=O)C(=O)N[C@H](C(=O)NCC(=O)N[C@@H](CO)C(=O)N[C@@H](CC(N)=O)C(=O)N[C@H](C(=O)N1CCC[C@H]1C(N)=O)[C@@H](C)O)C(C)C)[C@@H](C)O)N(C)C(=O)[C@H](C)NC(=O)CN(C)C(=O)[C@H](Cc1ccccc1)NC(=O)[C@@H](CC(N)=O)NC(=O)[C@H](CC(N)=O)NC(=O)[C@H](CO)NC(=O)[C@H](CO)NC(=O)[C@H](Cc1c[nH]cn1)NC(=O)[C@H](Cc1c[nH]cn1)NC(=O)[C@H](CC(C)C)NC(=O)[C@H](Cc1ccccc1)NC(=O)[C@H](CCC(=O)O)NC(=O)[C@H](C)NC(=O)[C@H](CC(C)C)NC(=O)[C@H](CCCNC(=N)N)NC(=O)[C@H](CCC(N)=O)NC(=O)[C@@H](NC(=O)[C@H](C)NC(=O)[C@@H]1CSSC[C@H](NC(=O)[C@H](CCCNC(=N)N)NC(=O)CC[C@H](NC(=O)CCCCCCCCCCCCCCCCCCC(=O)O)C(=O)O)C(=O)N[C@@H](CC(N)=O)C(=O)N[C@@H]([C@@H](C)O)C(=O)N[C@@H](C)C(=O)N[C@@H]([C@@H](C)O)C(=O)N1)[C@@H](C)O [Compound 33, [19CD]-isoGlu-RC()NTATC()ATQRLAEFLHHSSN-DAsn-F-Gly(Me)-A-Ile(Me)-LSSTNVGSNTP-NH2] ({C20 diacid-γGlu}-RCNTATCATQRLAEFLHHSSN[dN]F[Sar]A[NMeI]LSSTNVGSNTP-NH2; disulfide 2-7)
SS (SS indicates solubility ≥ 1mg/ml): Solubility, Acetate buffer pH 4 | Solubility, Acetate buffer pH 5 | Solubility, Histidine buffer pH 6 | Solubility, Histidine buffer pH 7 | Solubility, Phosphate buffer pH 6 | Solubility, Phosphate buffer pH 7 | Solubility, Phosphate buffer pH 7.5

CC[C@H](C)[C@@H](C(=O)N[C@@H](CC(C)C)C(=O)N[C@@H](CO)C(=O)N[C@@H](CO)C(=O)N[C@H](C(=O)N[C@@H](CC(N)=O)C(=O)N[C@H](C(=O)NCC(=O)N[C@@H](CO)C(=O)N[C@@H](CC(N)=O)C(=O)N[C@H](C(=O)N1CCC[C@H]1C(N)=O)[C@@H](C)O)C(C)C)[C@@H](C)O)N(C)C(=O)[C@H](C)NC(=O)CN(C)C(=O)[C@H](Cc1ccccc1)NC(=O)[C@H](CC(N)=O)NC(=O)[C@H](CC(N)=O)NC(=O)[C@H](CO)NC(=O)[C@H](CO)NC(=O)[C@H](CCCNC(=N)N)NC(=O)[C@H](Cc1c[nH]cn1)NC(=O)[C@H](CC(C)C)NC(=O)[C@H](Cc1ccccc1)NC(=O)[C@H](CCC(=O)O)NC(=O)[C@H](C)NC(=O)[C@H](CC(C)C)NC(=O)[C@H](CCCNC(=N)N)NC(=O)[C@H](CCC(N)=O)NC(=O)[C@@H](NC(=O)[C@H](C)NC(=O)[C@@H]1CSSC[C@H](NC(=O)[C@H](CCCCN)NC(=O)CC[C@H](NC(=O)CCCCCCCCCCCCCCCCCCC(=O)O)C(=O)O)C(=O)N[C@@H](CC(N)=O)C(=O)N[C@@H]([C@@H](C)O)C(=O)N[C@@H](C)C(=O)N[C@@H]([C@@H](C)O)C(=O)N1)[C@@H](C)O [Compound 57, [19CD]-isoGlu-KC()NTATC()ATQRLAEFLHRSSNNF-Gly(Me)-A-Ile(Me)-LSSTNVGSNTP-NH2] ({C20 diacid-γGlu}-KCNTATCATQRLAEFLHRSSNNF[Sar]A[NMeI]LSSTNVGSNTP-NH2; disulfide 2-7)
SS (SS indicates solubility ≥ 1mg/ml): Solubility, Acetate buffer pH 4 | Solubility, Acetate buffer pH 5 | Solubility, Histidine buffer pH 6 | Solubility, Histidine buffer pH 7 | Solubility, Phosphate buffer pH 6 | Solubility, Phosphate buffer pH 7 | Solubility, Phosphate buffer pH 7.5
